Patent US20230147942A1, “PHARMACEUTICAL COMPOSITION COMPRISING NEW LACTOBACILLUS PLANTARUM KC3 STRAIN AND LEONURUS JAPONICUS EXTRACT AS ACTIVE INGREDIENTS FOR PREVENTING OR TREATING RESPIRATORY DISEASE AND USE THEREOF” (KT&G CORPORATION, priority 2020, published 2023)
Where a SMILES comes first, the peptide text is derived from it. Bridges are numbered along the chain shown (N, C = ends). [ ]: non-standard residue; d: D form. The star is where a group is joined. Ileψ(thiazoline)Cys = CC[C@H](C)[C@H](N)C1=N[C@H](C(=O)*)CS1; dOrn = NCCC[C@@H](N)C(=O)O

The compounds below were run on Lactobacillus plantarum KC3 (assay: Antibiotic susceptibility of strain (antibiotic strips on LSM solid medium)). Conditions: 37° C., 24 hours.
Assay type: cell-based
Method: In order to confirm antibiotics resistance level of the new lactic acid bacteria from the of the Lactobacillus plantarum KC3 the present disclosure, an experiment was performed as follows by applying the method described in the document
To measure the antibiotics resistance level of the strain, an MIC test was carried out. Lactic acid bacteria that were inoculated into an MRS medium (DF0881-17-5, Difco) and cultured at 37° C. for 18 hours were spread on an LSM solid medium (90% iso-sensitest broth (CM0473, Oxoid), 10% MRS medium (DF0881-17-5, Difco), and 1.5% agar (214010, Difco)). Strips for each type of antibiotics, such as Amikacin (92018, Liofilchem srl), Gentamycin (92009, Liofilchem srl), Kanamycin (92034, Liofilchem srl), Streptomycin (92112, Liofilchem srl), Penicillin-G (92102, Liofilchem srl), Oxacillin (92015, Liofilchem srl), Ampicillin (920030, Liofilchem srl), Bacitracin (92019, Liofilchem srl), Rifampicin (92001, Liofilchem srl), Polymyxin B (92004, Liofilchem srl), Chloramphenico 1(92075, Liofilchem srl), Vancomycin (92057, Liofilchem srl), and the like, were put on the medium, and the bacteria were grown at 37° C. for 24 hours.
In Table 4, R indicates resistance and represents that the size of an inhibition zone is about 0 mm; IS indicates mediate resistance and represents that the size of an inhibition zone is in a range of about 1 mm to about 5 mm; and S indicates susceptibility and represents that the size of an inhibition zone is greater than about 5 mm.

Row | Compound | Antibiotic resistance (class) | Antibiotic resistance, size of inhibition zone
1 | NCC[C@H](O)C(=O)N[C@@H]1C[C@H](N)[C@@H](O[C@H]2O[C@H](CN)[C@@H](O)[C@H](O)[C@H]2O)[C@H](O)[C@H]1O[C@H]1O[C@H](CO)[C@@H](O)[C@H](N)[C@H]1O [Amikacin] | IS (IS indicates mediate resistance and represents that the size of an inhibition zone is in a range of about 1 mm to about 5 mm) | 1 mm
2 | CC1(C)S[C@@H]2[C@H](NC(=O)[C@H](N)c3ccccc3)C(=O)N2[C@H]1C(=O)O [Ampicillin] | S (S indicates susceptibility and represents that the size of an inhibition zone is greater than about 5 mm) | 14 mm
3 | CC[C@H](C)[C@H](N)C1=N[C@H](C(=O)N[C@@H](CC(C)C)C(=O)N[C@H](CCC(=O)O)C(=O)N[C@H](C(=O)N[C@H]2CCCCNC(=O)[C@H](CC(N)=O)NC(=O)[C@@H](CC(=O)O)NC(=O)[C@H](Cc3cnc[nH]3)NC(=O)[C@@H](Cc3ccccc3)NC(=O)[C@H]([C@@H](C)CC)NC(=O)[C@@H](CCCN)NC2=O)[C@@H](C)CC)CS1 [Bacitracin] ({Ileψ(thiazoline)Cys}-L[dE]IK[dOrn]I[dF]H[dD]N; lactam 4-C) | S (S indicates susceptibility and represents that the size of an inhibition zone is greater than about 5 mm) | 7 mm
4 | O=C(N[C@H](CO)[C@H](O)c1ccc([N+](=O)[O-])cc1)C(Cl)Cl [Chloramphenicol] | S (S indicates susceptibility and represents that the size of an inhibition zone is greater than about 5 mm) | 10 mm
5 | NC[C@H]1O[C@H](O[C@H]2[C@H](O)[C@@H](O[C@H]3O[C@H](CO)[C@@H](O)[C@H](N)[C@H]3O)[C@H](N)C[C@@H]2N)[C@H](O)[C@@H](O)[C@@H]1O [Kanamycin] | R (R indicates resistance and represents that the size of an inhibition zone is about 0 mm) | 0 mm
6 | CCC[C@@H]1C[C@@H](C(=O)N[C@@H]([C@H]2O[C@H](SC)[C@H](O)[C@@H](O)[C@H]2O)[C@@H](C)O)N(C)C1 [Lincomycin] | S (S indicates susceptibility and represents that the size of an inhibition zone is greater than about 5 mm) | 10 mm
7 | CO[C@@H]1[C@@H](OC(N)=O)[C@@H](O)[C@H](Oc2ccc3c(O)c(NC(=O)c4ccc(O)c(CC=C(C)C)c4)c(=O)oc3c2C)OC1(C)C [Novabiocin] | S (S indicates susceptibility and represents that the size of an inhibition zone is greater than about 5 mm) | 7 mm
8 | Cc1onc(-c2ccccc2)c1C(=O)N[C@@H]1C(=O)N2[C@@H]1SC(C)(C)[C@@H]2C(=O)O [Oxacillin] | IS (IS indicates mediate resistance and represents that the size of an inhibition zone is in a range of about 1 mm to about 5 mm) | 2 mm
9 | CC1(C)S[C@@H]2[C@H](NC(=O)Cc3ccccc3)C(=O)N2[C@H]1C(=O)O [Penicillin-G] | IS (IS indicates mediate resistance and represents that the size of an inhibition zone is in a range of about 1 mm to about 5 mm) | 5 mm
10 | CO[C@H]1/C=C/O[C@@]2(C)Oc3c(C)c(O)c4c(O)c(c(/C=N/N5CCN(C)CC5)c(O)c4c3C2=O)NC(=O)/C(C)=C\C=C\[C@H](C)[C@H](O)[C@@H](C)[C@@H](O)[C@@H](C)[C@H](OC(C)=O)[C@@H]1C [Rifampicin] | S (S indicates susceptibility and represents that the size of an inhibition zone is greater than about 5 mm) | 7 mm
11 | [H]/N=C(/N)N[C@H]1[C@H](O)[C@@H](O)[C@H](O[C@@H]2O[C@@H](C)[C@](O)(C=O)[C@H]2O[C@@H]2O[C@@H](CO)[C@H](O)[C@@H](O)[C@@H]2NC)[C@@H](N/C(N)=N\[H])[C@@H]1O [Streptomycin] | R (R indicates resistance and represents that the size of an inhibition zone is about 0 mm) | 0 mm
12 | CN[C@H](CC(C)C)C(=O)N[C@H]1C(=O)N[C@@H](CC(N)=O)C(=O)N[C@H]2C(=O)N[C@H]3C(=O)N[C@H](C(=O)N[C@H](C(=O)O)c4cc(O)cc(O)c4-c4cc3ccc4O)[C@H](O)c3ccc(c(Cl)c3)Oc3cc2cc(c3O[C@@H]2O[C@H](CO)[C@@H](O)[C@H](O)[C@H]2O[C@H]2C[C@](C)(N)[C@H](O)[C@H](C)O2)Oc2ccc(cc2Cl)[C@H]1O [Vancomycin] | R (R indicates resistance and represents that the size of an inhibition zone is about 0 mm) | 0 mm
13 | Gentamycin | IS (IS indicates mediate resistance and represents that the size of an inhibition zone is in a range of about 1 mm to about 5 mm) | 3 mm
14 | Neomycin | IS (IS indicates mediate resistance and represents that the size of an inhibition zone is in a range of about 1 mm to about 5 mm) | 3 mm
15 | Polymyxin B | R (R indicates resistance and represents that the size of an inhibition zone is about 0 mm) | 0 mm
